Test results as given in PubChem BioAssay (NCI).
Several values for one entry are separate records, joined by “and”; a condition that tells them apart may be missing. Identical values can stand only once.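 Cells were grown in 96-well plates and exposed to each compound for 48 hours at five concentrations; endpoints were interpolated linearly between bracketing concentrations, or set to the highest concentration if not reached. GI50 is the concentration that inhibits growth by half. Definition used: TGI = concentration required for complete inhibition of growth.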

Key:
Test in all cases: inhibition of tumour cell growth, NCI panel, 48 h
[1] = system: 786-0 renal
[2] = system: BT-549 breast
[3] = system: CAKI-1 renal
[4] = system: HOP-92 NSCLC
[5] = system: NCI-H522 lung
[6] = system: OVCAR-5 ovarian
[7] = system: OVCAR-8 ovarian
[8] = system: SF-268 CNS
[9] = system: SR leukemia
[10] = system: TK-10 renal

Row | Compound | GI50 [1] [µM] | TGI [1] [µM] | GI50 [2] | TGI [2] [µM] | GI50 [3] | TGI [3] [µM] | GI50 [4] | TGI [4] [µM] | GI50 [5] | TGI [5] [µM] | GI50 [6] | TGI [6] [µM] | GI50 [7] | TGI [7] [µM] | GI50 [8] | TGI [8] [µM] | GI50 [9] | GI50 [10] | TGI [10] [µM] | TGI [9] [µM]
1 | CCC(=O)Nc1ccccc1C#C/C=C\C#Cc1ccccc1C(F)(F)F | 2.37 | 23.2 | 2.21 µM | 32.5 | 1.53 µM | > 30.4 | 3.01 µM | > 36.1 | 1.33 µM | 6.09 | 3.2 µM | > 37 | 8.04 µM | > 50 | 3.21 µM | 35.3 | 0.386 µM | 4.46 µM | > 50 | –
2 | O=C1C(=O)c2ccccc2C(O)=C1CCCc1ccc(C2CCCCCC2)cc1 | 0.465 | 17 | 1.14 µM | 19.5 | 0.432 µM | 26 | 3.01 µM | 24.9 | 2.64 µM | 32.7 | 19.8 µM | > 100 | 1.62 µM | 41.7 | 0.625 µM | 26.7 | 1.77 µM | 3.14 µM | 57 | > 100
3 | Cc1ccc(C(SCC(N)C(=O)O)(c2ccccc2)c2ccccc2)cc1 (centres undefined) | 0.175 | 2.43 | 0.145 µM | > 69.7 | 0.151 µM | > 100 | 0.288 µM | 73.1 | 0.0403 µM | 85.1 | 2.41 µM | > 100 | 0.139 µM | > 100 | 0.0612 µM | 31.9 | 0.0724 µM | 1.22 µM | > 100 | > 45.8
4 | Oc1cccc(/C=N/Nc2nnc(N/N=C/c3cccc(O)c3)c3ccccc23)c1 | – | 38.5 | – | 44.8 | – | 83.3 | – | 76.1 | – | 53.1 | – | > 100 | – | 18.1 | – | > 100 | – | – | 50.9 | 7.06
5 | CCCCCCCCCCCCCCCC(=O)OCC1OC(OC)C2NP(=O)(N(CCCl)CCCl)OC1C2O (centres undefined) | – | 3.85 | – | 5.96 | – | 10.5 | – | 5.51 | – | 3.42 | – | 59.2 | – | 13.5 | – | 14.8 | – | – | 31.7 | 1.78
6 | Cc1cc(C(=O)NC(CCC(=O)O)C(=O)O)sc1CCC1CNc2nc(N)[nH]c(=O)c2C1 (centres undefined) | < 0.01 | > 100 | 0.37 µM and 2.39 µM | > 100 | < 0.018 µM and 0.0234 µM | > 100 | 0.179 µM and 0.0802 µM | > 100 | < 0.0226 µM and 0.0546 µM | > 100 | 0.0383 µM and 0.0723 µM | > 100 | < 0.0215 µM and 0.0454 µM | > 100 | 0.044 µM and 0.0721 µM | > 100 | < 0.0156 µM and 0.0263 µM | 0.0355 µM and 0.065 µM | > 100 | > 100
7 | CN(C)CC(C(=O)Cc1ccccc1)c1ccccc1 (centres undefined) | 2.18 | 4.51 | 3.18 µM | 8.74 | 1.57 µM | 3.01 | 2.78 µM | 7.5 | 1.74 µM | 3.47 | 8.19 µM | 22.4 | 6.75 µM | 23.1 | 8.25 µM | 22.6 | 1.24 µM | 1.56 µM | 3.1 | 7.55
8 | C[C@]12CC[C@H]3[C@@H](C[C@@H]4SC(Nc5ccccc5)=N[C@@]45CC(O)CC[C@]35C)[C@@H]1CCC2O (some centres undefined) | 1.22 | 3.3 | 1.38 µM | 4.31 | 2.32 µM | 5.68 | 2.84 µM | 6.77 | 1.9 µM | 4.5 | 2.68 µM | 7.86 | 3.43 µM | 14.9 | 1.66 µM | 3.32 | 0.241 µM | 2.91 µM | 6.63 | 6.1
9 | COc1cc(C2C3=C(COC3=O)Nc3c2ccc2c3CCCC2)cc2c1OCO2 (centres undefined) | 0.0757 | 14.4 | 0.118 µM | 30.5 | 0.0775 µM | > 100 | 0.364 µM | 20.8 | 0.0239 µM | 1.46 | 0.0897 µM | > 100 | 0.045 µM | 20.2 | 0.107 µM | 19.6 | 0.0354 µM | 14.9 µM | > 94.3 | > 21
10 | O=[n+]1c2ccccc2n([O-])c2cc(Cl)ccc21 | 3.12 | 13.4 | 5.2 µM | 24.1 | 3.28 µM | 13.1 | 2.14 µM | 8.29 | 1.47 µM | 3.11 | 15.7 µM | 33.5 | 3.5 µM | 15.4 | 2.99 µM | 10.7 | 2.19 µM | 4.96 µM | 18 | 7.53
11 | COc1cc2ncnc(Nc3ccc4c(cnn4Cc4ccccc4)c3)c2cc1OC | 16.7 | > 25 | 16.5 µM | > 25 | 0.385 µM | > 25 | 0.434 µM | > 25 | 0.724 µM | > 25 | > 25 µM | > 25 | > 17.5 µM | > 25 | > 25 µM | > 25 | 24.9 µM | 0.131 µM | > 25 | > 25
12 | C/C=C/[C@H]1O[C@@H]2C(=C[C@H]1O)C(=O)O[C@H]2C | 13.8 | 28.7 | 10.5 µM | 22.5 | 5.3 µM | 17.1 | 1.55 µM | 22.1 | 5.02 µM | > 42.9 | 23.2 µM | 45.8 | 24.8 µM | > 56.8 | 30.1 µM | > 95 | 7.29 µM | 14.9 µM | 33 | > 100
